Source: US9241968B2, “Nonapeptide with anti-tumour activity” (Lytix Biopharma AS, priority 2008, dated 2016)
Non-standard residues stand in square brackets, D forms with d. Residues, ends and D or L forms follow the SMILES beside them. Bip = N[C@@H](Cc1ccc(-c2ccccc2)cc1)C(=O)O; dBip = N[C@H](Cc1ccc(-c2ccccc2)cc1)C(=O)O; Dip = N[C@H](C(=O)O)C(c1ccccc1)c1ccccc1

How the values were obtained:
[1] = test system: murine A20 B-cell lymphoma; test: Intratumoral treatment of murine A20 B-cell lymphoma tumours in mice; type: in vivo; conditions: Group 1 (1 mg) compared to the other two groups
Description: The aim of the study was to investigate the effect of LTX-315 at different dose levels on a murine A20 B-cell lymphoma in mice.
The administration took place by intratumoral injection of LTX-315 dissolved in sterile saline.
Female mice were inoculated subcutaneously in the abdomen with 5 million murine A20 cells (ATCC, LGC Promochem AB, Middlesex, England) in a volume of 50 μl. The mice were divided into four groups (see Table 5 below for details). The intratumoral treatment was initiated when the tumours had reached the desired size of approximately 5 mm in diameter (minimum of 20 mm^2).
Three dose levels of LTX-315, 1 mg (Group 1), 0.5 mg (Group 2) and 0.25 mg (Group 3) per injection, were investigated. The volume was 50 μl for all injections. LTX-315 was dissolved in sterile 0.9% NaCl water solution. This vehicle was used as control (Group 4). All four groups received three injections.
A caliper was used for tumour size measurements and weighing and physical examination were used as health control.
Animals: Specific pathogen-free female Balb/c mice, 6-8 weeks old, supplied form Harlan (England, UK)

[2] = test system: panel of 37 human cancer cell lines; test: In vitro cytotoxic activity, MTS assay, panel summary; type: cell-based; conditions: range stated in conclusions
Description: 2. Materials and Methods 2.1. Test Substances 2.1.1. Test Substances • Test substances, LTX-302, LTX-313, LTX-315, LTX-320 and LTX-329 (see Table 1) provided in powder form. 2.1.2. Positive Control • Triton X-100 was used as positive control, supplied by Oncodesign (Dijon, France) from Sigma (Saint Quentin Fallavier, France). 2.1.3. Drug Vehicle and Storage Conditions • Compounds were stored at 4° C. Powder was first dissolved in serum free culture medium (RPMI 1640, Lonza, Verviers, Belgium) and further diluted using serum-free culture medium to reach appropriate dilutions. Stock solution was not stored and was prepared fresh the day of experiment. • 1% (final concentration) Triton X-100 was obtained by dilution using culture medium. 2.2. Tumor Cell Lines and Culture Conditions 2.2.1. Tumor Cell Lines
Tumor cells were grown as adherent monolayers or as suspensions at 37° C. in a humidified atmosphere (5% CO2, 95% air). The culture medium was RPMI 1640 containing 2 mM L-glutamine (Lonza, Belgium) and supplemented with 10% fetal bovine serum (FBS, Lonza). For experimental use, the adherent cells were detached from the culture flask by a 5-minute treatment with trypsin-versene (Lonza), diluted in Hanks' medium without calcium or magnesium (Lonza) and neutralized by addition of complete culture medium. Cells were counted in a hemocytometer and their viability was assessed by 0.25% trypan blue exclusion.
Tumor cells were plated in 96-well flat-bottom microtitration plates (Nunc, Dutscher, Brumath, France) and incubated at 37° C. for 24 hours before treatment in 190 μl of drug-free culture medium supplemented or not with 10% FBS for adherent or suspension growing cell lines, respectively.
The adherent cell lines were washed once with 200 μl FBS-free culture medium before treatment. […]
Three (3) independent experiments were performed, each concentration being tested in quadruplicate. […] At the end of treatments, the cytotoxic activity was evaluated by a MTS assay (see §3.3). […]
At the end of the cells treatment, 40 μl of a 0.22 μm filtered freshly combined solution of MTS (20 ml at 2 mg/ml, Ref G1111, Batch 235897, Exp March/2009, Promega, Charbonnières, France) and PMS (1 ml at 0.92 mg/ml, Ref P9625, Batch 065K0961, Sigma) in Dulbecco's Phosphate Buffered Saline (DPBS, Ref 17-513Q, Batch 6MB0152, Cambrex), were added in each well. […] Absorbency (OD) were measured at 490 nm in each well using VICTOR^3™ 1420 multilabeled counter (Wallac, PerkinElmer, Courtaboeuf, France). […]
The dose-response curves were plotted using XLFit 3 (IDBS, United Kingdom). The IC50 determination values were calculated using the XLFit 3 software from semi-log curves. […]

[3] = test system: panel of 10 lymphoma cell lines; test: In vitro cytotoxic activity on lymphoma cells, MTS assay, panel summary; type: cell-based, human; conditions: range stated in conclusions
Text: • To determine the concentrations of five novel compounds to obtain a 50% inhibition of proliferation (IC50) against a panel of 10 lymphoma cell lines. 2. Materials and Methods 2.1. Test Substances 2.1.1. Test Substances • Test substances, LTX-302, LTX-313, LTX-315, LTX-320 and LTX-329 (see Table 1) provided in powder form. 2.1.2. Positive Control • Triton X-100 was used as positive control and supplied by Oncodesign (Dijon, France) from Sigma (Saint Quentin Fallavier, France). 2.1.3. Drug vehicle and storage condition • Compounds were stored at 4° C. Powder was first dissolved in serum free culture medium (RPMI 1640, Lonza, Verviers, Belgium) and further diluted using serum-free culture medium to reach appropriate dilutions. Stock solution was not stored and was prepared fresh the day of experiment. • 1% (final concentration) Triton X-100 was obtained by dilution using culture medium. 2.2. Tumor Cell Lines and Culture Conditions 2.2.1. Tumor Cell Lines
Tumor cells were grown as suspensions at 37° C. in a humidified atmosphere (5% CO2, 95% air). The culture medium for each cell line is described in the Table 3 below. For experimental use, cells were counted in a hemocytometer and their viability was assessed by 0.25% trypan blue exclusion.
Tumor cells were plated in 96-well flat-bottom microtitration plates (Nunc, Dutscher, Brumath, France) and incubated at 37° C. for 24 hours before treatment in 190 μl of drug-free and FBS-free culture medium.
Tumor cells were incubated for 4 hours with 10 concentrations of compounds in ¼ dilution step with a top dose of 400 μM (range 4×10^−4 to […]), with 1% (final concentration) Triton X-100 as positive control and FBS-free culture medium as negative control. The cells (190 μl) were incubated in a 200 μl final volume of FBS-free culture medium containing test substances at 37° C. under 5% CO2.
Three independent experiments were performed, each concentration being issued from quadruplicate. Control cells were treated with vehicle alone. At the end of treatments, the cytotoxic activity was evaluated by a MTS assay (see §3.3 below). […]
At the end of the cells treatment, 40 μl of a 0.22 μm filtered freshly combined solution of MTS (20 ml at 2 mg/ml, Ref G1111, Batch 235897, Exp March/2009, Promega, Charbonnières, France) and PMS (1 ml at 0.92 mg/ml, Ref P9625, Batch 065K0961, Sigma) in Dulbecco's Phosphate Buffered Saline (DPBS, Ref 17-513Q, Batch 6MB0152, Cambrex), were added in each well. […] Absorbency (OD) were measured at 490 nm in each well using VICTOR^3™ 1420 multilabeled counter (Wallac, PerkinElmer, Courtaboeuf, France).
4.1. IC50 Data was Determined as in Example 1

SMILES | necrosis and wound formation [1] | IC50 values against 37 human cancer cell lines (cytolytic activity), in words [2] | IC50 values against the 10 human lymphoma cell lines (cytolytic activity), in words [3]
NCCCC[C@H](NC(=O)[C@@H](NC(=O)[C@H](Cc1c[nH]c2ccccc12)NC(=O)[C@H](CCCCN)NC(=O)[C@H](CCCCN)NC(=O)[C@H](Cc1c[nH]c2ccccc12)NC(=O)[C@H](Cc1c[nH]c2ccccc12)NC(=O)[C@H](CCCCN)NC(=O)[C@@H](N)CCCCN)C(c1ccccc1)c1ccccc1)C(N)=O [LTX-315, K-K-W-W-K-K-W-Dip-K-NH2] (H-KKWWKKW[Dip]K-NH2) | stronger necrosis and more wound formation | – | –
N=C(N)NCCC[C@H](NC(=O)[C@H](Cc1c[nH]c2ccccc12)NC(=O)[C@H](Cc1c[nH]c2ccccc12)NC(=O)[C@H](CCCNC(=N)N)NC(=O)[C@H](CCCNC(=N)N)NC(=O)[C@@H](NC(=O)[C@H](Cc1c[nH]c2ccccc12)NC(=O)[C@H](CCCNC(=N)N)NC(=O)[C@@H](N)CCCNC(=N)N)C(c1ccccc1)c1ccccc1)C(N)=O [LTX-320, R-R-W-Dip-R-R-W-W-R-NH2] (H-RRW[Dip]RRWWR-NH2; N-terminus assumed) | – | micromolar to ten micromolar range | micromolar range
NCCCC[C@H](NC(=O)[C@H](Cc1c[nH]c2ccccc12)NC(=O)[C@H](Cc1c[nH]c2ccccc12)NC(=O)[C@H](CCCCN)NC(=O)[C@H](CCCCN)NC(=O)[C@H](Cc1c[nH]c2ccccc12)NC(=O)[C@H](Cc1ccc(-c2ccccc2)cc1)NC(=O)[C@H](CCCCN)NC(=O)[C@@H](N)CCCCN)C(N)=O [LTX-313, K-K-Bip-W-K-K-W-W-K-NH2] (H-KK[Bip]WKKWWK-NH2; N-terminus assumed) | – | micromolar to ten micromolar range | micromolar range
NCCCC[C@H](NC(=O)[C@H](Cc1c[nH]c2ccccc12)NC(=O)[C@H](CCCCN)NC(=O)[C@H](CCCCN)NC(=O)[C@@H](NC(=O)[C@H](Cc1c[nH]c2ccccc12)NC(=O)[C@H](CCCCN)NC(=O)[C@H](CCCCN)NC(=O)[C@@H](N)Cc1c[nH]c2ccccc12)C(c1ccccc1)c1ccccc1)C(N)=O [LTX-302, W-K-K-W-Dip-K-K-W-K-NH2] (H-WKKW[Dip]KKWK-NH2; N-terminus assumed) | – | micromolar to ten micromolar range | micromolar range
NCCCC[C@@H](N)C(=O)N[C@H](CCCCN)C(=O)N[C@H](Cc1ccc(-c2ccccc2)cc1)C(=O)N[C@H](Cc1c[nH]c2ccccc12)C(=O)N[C@H](CCCCN)C(=O)N[C@H](CCCCN)C(=O)N[C@H](Cc1c[nH]c2ccccc12)C(=O)N[C@H](Cc1c[nH]c2ccccc12)C(=O)N[C@H](CCCCN)C(N)=O [LTX-329, k-k-bip-w-k-k-w-w-k-NH2] (H-[dK][dK][dBip][dW][dK][dK][dW][dW][dK]-NH2; N-terminus assumed) | – | micromolar to ten micromolar range | micromolar range
